# “Also recorded” adds a separate entry of the source.
# Assays:
# S. aureus MTCC 6908 = assay: MIC by micro broth dilution, laboratory S. aureus strain; type: cell-based, Staphylococcus aureus; conditions: Staphylococcus aureus, MTCC6908; Table 6; read-out: MIC Susceptible S. aureus (6908) strain
# Description: The plates were incubated at 37° C. for 48 h under anaerobic condition for P. acnes and 37° C. for 24 h for S. aureus The plates were read under Bio-Rad plate reader at 595 nm for optical density to generate the dose-response curves. The MIC of the test compound was recorded by addition of Alamar blue dye.
# S. aureus MTCC 6908 were grown in Tryptone Soya Agar (TSA) at 37° C. for 24 hours. […] Plates were incubated at 37° C. for 24 hours. […] (2) Zone of Inhibition (ZOI): S. aureus MTCC 6908 were grown in Tryptone Soya Agar (TSA) at 37° C. for 24 hours. BHA plates are spreaded with 100 μl of 0.5 McFarland standard equal bacterial suspension. Test samples (drugs/formulations) were dissolved in water/solvent based on the solubility. Sterile disc (6 mm) were loaded with 10 μl of test samples (of various concentration of drug), and were placed above the spreaded plates. Plates were incubated at 37 C for 24 h, followed by ZOI measurement. (3) Time Kill Assay: 0.5 McFarland standard equal S. aureus culture was prepared in sterile water. Besifloxacin gels were diluted in Tryptone Soya broth (TSB) to get final concentration of 25 μg/ml. Then 900 μl of S. aureus 0.5 McFarland standard equal culture and 100 μl of diluted Besifloxacin gel was mixed to obtain final Besifloxacin concentration, 2.5 μl g/ml. Total reaction mixture (1 ml) was incubated at 37° C. in a tube rotator. After 2 and 6 h exposure, bacterial suspension was placed on Tryptone soya agar plate and incubated at 37° C. for 24 h.
# Inoculated plates were incubated at 37° C. for 24 hours.
# E. coli DNA gyrase = molecular target: T1, E. coli DNA gyrase (Escherichia coli, UniProt P0AES4+P0AES6); assay: DNA gyrase super-coiling activity assay (Topogen kit, relaxed pHOT1 plasmid); type: biochemical; conditions: for Super-coiled band (percentage of DNA super-coiling): untreated control 100%; for Inhibition of super-coiling activity of DNA gyrase (in words): 1 μM and 2.5 μM
# T1 construct: purchased Topogen Inc
# Description: DNA super-coiling activity was assayed using DNA gyrase assay kit (Topogen Inc.) with relaxed pHOT1 E. coli plasmid DNA according to manufacturer's protocol. The standard reaction mixture (20 μl) contained 35 mM Tris-HCl (pH 7.5), 24 mM KCl, 4 mM MgCl2, 2 mM dithiothreitol, 1.8 mM spermidine, 1 mM ATP, 6.5% glycerol, 0.1 mg/ml bovine serum albumin (BSA), 10 μg/ml relaxed pHOT1 plasmid DNA and 1 U of DNA gyrase. The reaction mixture was incubated at 37° C. for 1 h in presence of selected compounds/fluoroquinolone at different concentrations. The reaction was terminated by addition of ⅕ volume of loading dye (4 μl) followed by proteinase K (50 μg/ml) and again incubated at 37° C. for half an hour. 20 μl chloroform/isoamyl alcohol (24:1) was added to each tube and vortexed briefly. Thereafter, the blue aqueous phase was separated out and analyzed by 1% agarose gel electrophoresis. The gel was stained by ethidium bromide for half an hour and destained with water for 15 mins. The gel was then visualized in a trans-illuminator and photographed.
# IL-8 = assay: P. acnes-induced IL-8 release in THP-1 cells (ELISA); type: cell-based; conditions: 25 μg/ml
# T1 sequence (P0AES4 whole entry, one chain of several): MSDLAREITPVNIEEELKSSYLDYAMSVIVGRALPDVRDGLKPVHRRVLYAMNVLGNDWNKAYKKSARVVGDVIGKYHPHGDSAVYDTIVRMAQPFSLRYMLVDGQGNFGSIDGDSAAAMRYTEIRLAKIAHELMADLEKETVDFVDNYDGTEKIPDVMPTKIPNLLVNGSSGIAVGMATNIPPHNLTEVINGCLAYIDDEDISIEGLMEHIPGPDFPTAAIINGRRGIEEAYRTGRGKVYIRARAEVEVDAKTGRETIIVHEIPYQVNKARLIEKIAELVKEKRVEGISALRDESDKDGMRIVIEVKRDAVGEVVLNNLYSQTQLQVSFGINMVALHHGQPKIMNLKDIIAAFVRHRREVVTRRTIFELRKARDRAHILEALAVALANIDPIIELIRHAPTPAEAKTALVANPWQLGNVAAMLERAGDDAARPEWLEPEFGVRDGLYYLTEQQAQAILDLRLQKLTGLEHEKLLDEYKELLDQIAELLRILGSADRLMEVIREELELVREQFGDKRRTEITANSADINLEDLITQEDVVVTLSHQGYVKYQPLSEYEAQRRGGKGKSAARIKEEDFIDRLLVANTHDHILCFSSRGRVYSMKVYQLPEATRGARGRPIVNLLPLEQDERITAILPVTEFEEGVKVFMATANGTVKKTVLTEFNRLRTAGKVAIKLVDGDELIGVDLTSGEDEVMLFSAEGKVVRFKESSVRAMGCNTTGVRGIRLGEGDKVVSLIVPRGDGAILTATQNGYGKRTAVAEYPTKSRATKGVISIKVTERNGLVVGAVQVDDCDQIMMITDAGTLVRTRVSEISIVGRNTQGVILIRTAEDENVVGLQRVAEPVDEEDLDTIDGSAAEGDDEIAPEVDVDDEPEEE
smiles,measurement,setting,value
"Cc1ncc([N+](=O)[O-])n1CC(O)CN1CCN(c2cc3c(cc2F)c(=O)c(C(=O)O)c2n3C(C)S2)CC1 (stereo not shown) [Compound 91, 6-Fluoro-7-{4-[2-hydroxy-3-(2-methyl-5-nitro-imidazol-1-yl)-propyl]-piperazin-1-yl}-1-methyl-4-oxo-4H-2-thia-8b-aza-cyclobuta[a]naphthalene-3-carboxylic acid]",MIC,S. aureus MTCC 6908,1.5 µg/mL
same,Super-coiled band (percentage of DNA super-coiling),E. coli DNA gyrase; 0.25 μM,around 54.3%
same,Inhibition of super-coiling activity of DNA gyrase (in words),E. coli DNA gyrase,best gyrase inhibiting activity; also recorded: greater efficacy
same,Inhibition of super-coiling activity of DNA gyrase (in words),E. coli DNA gyrase; listed as compound 91,able to inhibit the super-coiling activity; also recorded: highly potent; also recorded: better efficacy; also recorded: most potent
same,Super-coiled band (percentage of DNA super-coiling),E. coli DNA gyrase; 5 μM,about 2%
same,Effect on IL-8 levels (in words),IL-8; P. acnes-induced THP-1 cells,did not have an effect
same,Percentage reduction in P. acnes induced IL-8 release,"IL-8; THP-1 cells, 100% = P. acnes induced cells",14.65%

# — patent publication US10071103B2, “Treatments for resistant acne” (VYOME BIOSCIENCES PVT. LTD., priority 2014, dated 2018)
